Earlier results, collected in PMC7766159, “Novel Psychoactive Phenethylamines: Impact on Genetic Material” (International Journal of Molecular Sciences, 2020).

Tested on: primary rat hepatocyte
Design: method as in PMID 31468101
Conditions: after 24 h; cited from earlier work

CNC(C)C(=O)c1cccc(C)c1 (stereo not shown) [Metaphedrone, 3-methylmethcathinone]
concentration mediating oxidative stress: 10 µM
